Data published in US10448639B2, “Fungicidal pyrazoles” (FMC CORPORATION, priority 2009, dated 2019).
Marks after values point to notes of the source that are not given here.

Key:
[1] = system: Septoria nodorum; assay: Test F: Septoria glume blotch, preventive spray on wheat seedlings, visual disease rating; conditions: Septoria glume blotch; for Test F rating (% disease control): 100 = 100% disease control, 0 = no control relative to controls
[2] = system: Botrytis cinerea; assay: Test B: tomato Botrytis, preventive spray on tomato seedlings, visual disease rating; conditions: tomato Botrytis; for Test B rating (% disease control): 100 = 100% disease control, 0 = no control relative to controls
[3] = system: Puccinia recondita f. sp. tritici; assay: Test I: wheat leaf rust, preventive spray on wheat seedlings, visual disease rating; conditions: wheat leaf rust, preventive; for Test I rating (% disease control): 100 = 100% disease control, 0 = no control relative to controls
Excerpt: General protocol for preparing test suspensions for Tests A-J: the test compounds were first dissolved in acetone in an amount equal to 3% of the final volume and then suspended at the desired concentration (in ppm) in acetone and purified water (50/50 mix by volume) containing 250 ppm of the surfactant Trem® 014 (polyhydric alcohol esters). The resulting test suspensions were then used in Tests A-J. Spraying a 200 ppm test suspension to the point of run-off on the test plants was the equivalent of a rate of 500 g/ha. Unless otherwise indicated, the rating values indicate a 200 ppm test suspension was used. (An asterisk “*” next to the rating value indicates a 40 ppm test suspension was used.)
The test suspension was sprayed to the point of run-off on wheat seedlings. The following day the seedlings were inoculated with a spore suspension of Puccinia recondita f. sp. tritici (the causal agent of wheat leaf rust) and incubated in a saturated atmosphere at 20° C. for 24 h, and then moved to a growth chamber at 20° C. for 7 days, after which time visual disease ratings were made
A dash (-) indicates no test results.

[4] = system: Erysiphe graminis f sp. tritici; assay: Test J: wheat powdery mildew, preventive spray on wheat seedlings, visual disease rating; conditions: wheat powdery mildew; for Test J rating (% disease control): 100 = 100% disease control, 0 = no control relative to controls
[5] = system: Puccinia recondita f. sp. tritici; assay: Test H: wheat leaf rust, curative spray on inoculated wheat seedlings, visual disease rating; conditions: wheat leaf rust, curative; for Test H rating (% disease control): 100 = 100% disease control, 0 = no control relative to controls
[6] = system: Septoria tritici; assay: Test G: wheat leaf blotch, preventive spray on wheat seedlings, visual disease rating; conditions: wheat leaf blotch; for Test G rating (% disease control): 100 = 100% disease control, 0 = no control relative to controls
[7] = system: Alternaria solani; assay: Test C: tomato early blight, preventive spray on tomato seedlings, visual disease rating; conditions: tomato early blight; for Test C rating (% disease control): 100 = 100% disease control, 0 = no control relative to controls
[8] = rating marked with asterisk (*), meaning not given

Row | Structure (SMILES) | Test F rating (% disease control) [1] | Test B rating (% disease control) [2] | Test I rating (% disease control) [3] | Test J rating (% disease control) [4] | Test H rating (% disease control) [5] | Test G rating (% disease control) [6] | Test C rating (% disease control) [7] | Test F rating (% disease control), marked * [1, 8] | Test B rating (% disease control), marked * [2, 8] | Test I rating (% disease control), marked * [3, 8] | Test J rating (% disease control), marked * [4, 8] | Test H rating (% disease control), marked * [5, 8] | Test G rating (% disease control), marked * [6, 8] | Test C rating (% disease control), marked * [7, 8]
1 | COc1cc(F)c(-c2c(C)nn(C)c2Oc2ccc(Br)c(C)c2)c(F)c1 [compound 186] | 0% | 0% | 54% | 93% | 0% | 99% | 0% |  |  |  |  |  |  | 
2 | Cc1ccc(Oc2c(-c3c(F)cc(F)cc3F)c(C)nn2C)cc1F [compound 187] | 0% | 33% | 9% | 13% | 0% | 20% | 0% |  |  |  |  |  |  | 
3 | COc1cc(F)c(-c2c(C)nn(C)c2Oc2ccc(C)c(F)c2)c(F)c1 [compound 188] | 0% | 87% | 97% | 97% | 0% | 100% | 0% |  |  |  |  |  |  | 
4 | Cc1nn(C)c(Oc2ncc(F)cc2F)c1-c1ccc(F)cc1Cl [compound 189] | 80% | 99% | 99% | 98% | 99% | 100% | 100% |  |  |  |  |  |  | 
5 | COc1cc(F)c(Nc2c(-c3c(F)cccc3Cl)c(C)nn2C)c(F)c1 [compound 190] | 80% | 99% | 100% | 99% | 94% | 100% | 99% |  |  |  |  |  |  | 
6 | Cc1nn(C)c(Nc2c(F)cc(F)cc2F)c1-c1c(F)cccc1Cl [compound 191] | 0% | 98% | 97% | 99% | 0% | 100% | 100% |  |  |  |  |  |  | 
7 | Cc1nn(C)c(Nc2c(F)cc(C#N)cc2F)c1-c1c(F)cccc1Cl [compound 192] | 73% | 97% | 99% | 99% | 0% | 100% | 100% |  |  |  |  |  |  | 
8 | Cc1nn(C)c(Nc2ccc(F)cc2)c1-c1ccc(F)cc1F [compound 194] | 0% | 97% | 91% | 99% | 0% | 99% | 86% |  |  |  |  |  |  | 
9 | Cc1nn(C)c(Nc2ccc(Cl)cc2)c1-c1ccc(F)cc1F [compound 195] | 60% | 100% | 98% | 97% | 0% | 100% | 97% |  |  |  |  |  |  | 
10 | Cc1nn(C)c(Nc2ccc(C#N)cc2F)c1-c1c(F)cccc1F [compound 196] | 73% | 99% | 98% | 98% | 9% | 100% | 94% |  |  |  |  |  |  | 
11 | Cc1nn(C)c(Nc2cc(F)ccc2F)c1-c1c(F)cccc1F [compound 197] | 95% | 97% | 79% | 96% | 0% | 99% | 0% |  |  |  |  |  |  | 
12 | Cc1nn(C)c(Nc2cccc(F)c2F)c1-c1c(F)cccc1F [compound 198] | 0% | 97% | 94% | 97% | 0% | 100% | 68% |  |  |  |  |  |  | 
13 | COc1cc(F)ccc1Nc1c(-c2c(F)cccc2F)c(C)nn1C [compound 199] | 0% | 99% | 68% | 98% | 0% | 99% | 86% |  |  |  |  |  |  | 
14 | COc1cccc(Nc2c(-c3c(F)cccc3F)c(C)nn2C)c1 [compound 200] | 0% | 82% | 0% | 94% | 0% | 97% | 0% |  |  |  |  |  |  | 
15 | COc1ccc(Nc2c(-c3c(F)cccc3F)c(C)nn2C)c(Cl)c1 [compound 201] | 20% | 99% | 97% | 99% | 18% | 100% | 97% |  |  |  |  |  |  | 
16 | Cc1nn(C)c(Nc2ccc(F)cc2F)c1-c1cccc(F)c1F [compound 202] | 0% | 99% | 28% | 99% | 0% | 99% | 0% |  |  |  |  |  |  | 
17 | Cc1nn(C)c(Nc2c(F)cc(F)cc2F)c1-c1cccc(F)c1F [compound 203] | 0% | 99% | 96% | 100% | 0% | 98% | 0% |  |  |  |  |  |  | 
18 | COc1cc(F)c(Nc2c(-c3cccc(F)c3F)c(C)nn2C)c(F)c1 [compound 204] |  |  |  |  |  |  |  | 0* % | 100* % | 86* % | 99* % | 0* % | 99* % | 77* %
19 | Cc1nn(C)c(Nc2ccc(F)cc2)c1-c1cccc(F)c1F [compound 205] | 0% | 100% | 91% | 100% | 0% | 99% | 17% |  |  |  |  |  |  | 
20 | COc1cc(F)c(-c2c(C)nn(C)c2Oc2ccc(Cl)cc2)c(F)c1 [compound 206] | 84% | 99% | 99% | 100% | 41% | 99% | 99% |  |  |  |  |  |  | 
21 | Cc1nn(C)c(Nc2ccc(F)cc2Cl)c1-c1ccc(F)cc1F [compound 207] | 64% | 100% | 99% | 100% | 0% | 100% | 93% |  |  |  |  |  |  | 
22 | COc1cc(F)c(-c2c(C)nn(C)c2C(O)c2ccc(F)cc2F)c(F)c1 (stereo not drawn) [compound 208] | 99% | 100% | 99% | 99% | 0% | 100% | 100% |  |  |  |  |  |  | 
23 | Cc1ccc(Oc2c(-c3c(F)cc(F)cc3F)c(C)nn2C)cc1C [compound 209] | 0% | 0% | 0% | 97% | 0% | 0% | 0% |  |  |  |  |  |  | 
24 | COc1cc(F)c(-c2c(C)nn(C)c2Oc2ccc(C)c(C)c2)c(F)c1 [compound 210] | 0% | 0% | 94% | 99% | 99% | 100% | 0% |  |  |  |  |  |  | 
